From ChEMBL document CHEMBL4406877, “Synthesis of 2-arylhydrazinylidene-3-oxo-4,4,4-trifluorobutanoic acids as new selective carboxylesterase inhibitors and radical scavengers” (Bioorg Med Chem Lett, 2019) come the findings set out here.

The nature of data set [1]: Potency index, ratio of trolox IC50 to test compound IC50 for antioxidant activity assessed as decrease in ABTS radical cation scavenging activity. Type of data set: functional.
Data set [2] has as its target T1, Liver carboxylesterase (Sus scrofa, UniProt Q29550).
T1 sequence (Q29550 whole entry): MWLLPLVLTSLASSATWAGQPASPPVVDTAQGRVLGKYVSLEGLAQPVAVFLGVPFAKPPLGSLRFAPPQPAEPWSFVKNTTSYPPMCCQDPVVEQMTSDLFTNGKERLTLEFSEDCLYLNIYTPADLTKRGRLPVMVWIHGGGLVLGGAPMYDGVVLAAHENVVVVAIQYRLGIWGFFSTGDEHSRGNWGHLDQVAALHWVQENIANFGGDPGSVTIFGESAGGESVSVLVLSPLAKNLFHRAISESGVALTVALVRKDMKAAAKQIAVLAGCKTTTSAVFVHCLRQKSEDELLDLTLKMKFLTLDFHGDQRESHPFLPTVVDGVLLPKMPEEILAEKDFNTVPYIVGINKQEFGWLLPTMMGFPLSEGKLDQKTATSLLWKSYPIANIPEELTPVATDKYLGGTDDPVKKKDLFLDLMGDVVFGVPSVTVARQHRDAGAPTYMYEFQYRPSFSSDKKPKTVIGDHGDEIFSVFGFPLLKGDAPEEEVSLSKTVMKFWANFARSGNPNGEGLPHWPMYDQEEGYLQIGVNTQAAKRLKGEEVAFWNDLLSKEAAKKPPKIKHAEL
Put plainly: Inhibition of porcine liver carboxylesterase using 4-NPA as substrate preincubated for 10 mins followed by substrate addition by spectrophotometric analysis.

Data set [3] addresses Acetylcholinesterase (Homo sapiens) (UniProt P22303). Put plainly: Inhibition of human erythrocyte AChE at 20 uM using acetylthiocholine iodide as substrate preincubated for 10 mins followed by substrate addition by Ellman's method relative to control. A general note: Ellman's reagent forms a yellow product with free thiols.
Data set [4] has as its target Cholinesterase (Equus caballus) (UniProt P81908). Put plainly: Inhibition of equine serum BuChE at 20 uM using […] as substrate preincubated for 10 mins followed by substrate addition by Ellman's method relative to control.
A short description of data set [5]: Antioxidant activity assessed as decrease in ABTS radical cation scavenging activity every 1 min for 6 mins by UV-Vis spectrophotometric analysis. Type of data set: functional.
A short description of data set [6]: Antioxidant activity assessed as decrease in ABTS radical cation scavenging activity after 1 min by UV-Vis spectrophotometric analysis relative to control. Type of data set: functional. Set-up: scale not given: the % may be the effect or the level left.
Data set [7] can be described thus: Potency index, ratio of ascorbic acid IC50 to test compound IC50 for antioxidant activity assessed as decrease in ABTS radical cation scavenging activity. Type of data set: functional.
The target of data set [8] is T1, Liver carboxylesterase. Put plainly: Competitive inhibition of porcine liver carboxylesterase by double reciprocal Lineweaver-Burk plot analysis.
Data set [9] concerns the target T1, Liver carboxylesterase. Put plainly: Non-competitive inhibition of porcine liver carboxylesterase by double reciprocal Lineweaver-Burk plot analysis. As to conditions: pig.
Data set [10] has as its target T1, Liver carboxylesterase. Put plainly: Inhibition of porcine liver carboxylesterase at 20 uM using 4-NPA as substrate preincubated for 10 mins followed by substrate addition by spectrophotometric analysis relative to control. Conditions: pig.

Calls of active or inactive are those of the source. No cut-off for these calls is given here.

Acetylcholinesterase (Homo sapiens), sequence (P22303 whole entry): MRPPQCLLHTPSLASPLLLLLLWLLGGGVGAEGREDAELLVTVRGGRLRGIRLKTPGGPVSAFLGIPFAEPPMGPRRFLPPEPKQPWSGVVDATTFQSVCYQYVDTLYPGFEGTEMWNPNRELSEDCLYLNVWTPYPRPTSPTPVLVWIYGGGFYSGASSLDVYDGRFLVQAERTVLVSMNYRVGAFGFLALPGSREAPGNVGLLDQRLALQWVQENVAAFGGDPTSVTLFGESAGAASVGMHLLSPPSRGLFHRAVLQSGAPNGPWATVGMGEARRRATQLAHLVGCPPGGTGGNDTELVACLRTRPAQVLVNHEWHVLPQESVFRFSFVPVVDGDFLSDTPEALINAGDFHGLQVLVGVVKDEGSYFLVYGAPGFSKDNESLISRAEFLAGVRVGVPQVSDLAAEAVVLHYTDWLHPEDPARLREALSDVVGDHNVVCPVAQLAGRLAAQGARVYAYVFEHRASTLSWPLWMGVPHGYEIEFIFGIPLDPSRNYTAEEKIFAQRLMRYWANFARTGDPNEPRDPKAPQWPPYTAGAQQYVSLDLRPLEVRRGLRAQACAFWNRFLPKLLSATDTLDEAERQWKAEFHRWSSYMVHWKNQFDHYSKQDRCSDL
Cholinesterase (Equus caballus), sequence (P81908 whole entry): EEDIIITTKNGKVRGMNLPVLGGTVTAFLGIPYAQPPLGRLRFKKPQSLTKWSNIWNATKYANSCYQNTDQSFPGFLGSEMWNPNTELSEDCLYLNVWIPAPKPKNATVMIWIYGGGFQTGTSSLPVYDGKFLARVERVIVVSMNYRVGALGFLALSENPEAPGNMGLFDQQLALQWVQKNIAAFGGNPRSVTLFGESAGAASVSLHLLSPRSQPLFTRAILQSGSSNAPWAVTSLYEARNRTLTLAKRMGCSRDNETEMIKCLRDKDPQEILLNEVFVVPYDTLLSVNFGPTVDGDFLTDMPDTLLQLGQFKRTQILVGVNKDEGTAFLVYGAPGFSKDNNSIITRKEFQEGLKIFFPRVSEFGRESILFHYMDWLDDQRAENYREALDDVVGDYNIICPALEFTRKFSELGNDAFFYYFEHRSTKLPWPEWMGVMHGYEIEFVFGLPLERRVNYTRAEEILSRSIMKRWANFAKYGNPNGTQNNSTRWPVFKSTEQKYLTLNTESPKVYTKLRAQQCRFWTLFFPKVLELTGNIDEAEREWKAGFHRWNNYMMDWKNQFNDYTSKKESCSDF

As for `CCOC(=O)c1ccccc1N/N=C(\C(=O)O)C(=O)C(F)(F)F`, in data set [1], the Ratio IC50 amounted to 0.01. Moreover, the IC50 at Liver carboxylesterase [2] came to 0.0696 µM. In addition, the results for the inhibition in [3] and in [4] were 16.5% and 8.7%, respectively.
With `CCOC(=O)c1ccc(N/N=C(\C(=O)O)C(=O)C(F)(F)F)cc1`, in data set [1], the Ratio IC50 is 0.25. Also, the 50% inhibitory concentration (IC50) against Liver carboxylesterase [2] is 0.324 µM; in data set [5] it was 96.4 µM. For the same compound, the inhibition in data set [3] is 8.1%; in [4] it was 3.4%.
Consider `O=C(O)/C(=N\Nc1ccc([N+](=O)[O-])cc1)C(=O)C(F)(F)F`, for which the Ratio IC50 in [1] was 0.05. The compound further returned an IC50 at Liver carboxylesterase [2] of 2.76 µM. In addition, the inhibition in data set [3] was 6.1%; in [4], 17.3%.
As to `COc1ccc(N/N=C(\C(=O)O)C(=O)C(F)(F)F)cc1`, the Ratio IC50 in [1] is 1.9; in data set [7] it was 2. The IC50 at Liver carboxylesterase [2] stood at 2.62 µM; in data set [5], 11 µM. For the same compound, the Activity in [6] was determined as 75%. Besides, in [3], the inhibition result is “inactive”. The compound further registered an inhibition in data set [4] of 17.3%.
In the case of `O=C1O[C@H]([C@@H](O)CO)C(O)=C1O` [ASCORBIC ACID], the Ratio IC50 in data set [1] is 0.98. Besides, the IC50 in data set [5] stood at 21.4 µM.
As for `Cc1ccc(N/N=C(\C(=O)O)C(=O)C(F)(F)F)cc1`, the values for the Ratio IC50 in data set [1] and in data set [7] were 1.69 and 2, respectively. For the same compound, the figures for the concentration for half-maximal inhibition (IC50) (on Liver carboxylesterase [2]; in [5]) were 0.63 µM and 12.1 µM, respectively. Also, the inhibition entry in data set [3] was “inactive”. For the same compound, the Ki at Liver carboxylesterase [8] came out at 0.337 µM. The alphaKi at Liver carboxylesterase [9] came to 1.11 µM. Further, in data set [4], the inhibition was 18.1%.
Turning to `CC(=O)/C(=N/Nc1ccc(C)cc1)C(=O)O`, the Ratio IC50 in data set [1] was found to be 1.65. Besides, the inhibition entry in data set [3] and in data set [4] was “inactive” throughout. On Liver carboxylesterase [10] (porcine liver carboxylesterase, probe 4-NPA), this compound displayed an inhibition at 20 µM of 9.3%. Also, the IC50 in data set [5] is 12.8 µM.
On to `O=[N+]([O-])c1ccc(OP(=O)(O)Oc2ccc([N+](=O)[O-])cc2)cc1`, for which the inhibition entry in [3] and in data set [4] was “inactive” each time.
Regarding `Cc1c(C)c2c(c(C)c1O)CCC(C)(C(=O)O)O2` (stereo not drawn) [TROLOX], the concentration for half-maximal inhibition (IC50) in data set [5] stood at 20.4 µM.
Regarding `COc1ccc(N/N=C(/C(C)=O)C(=O)O)cc1`, in [1], the Ratio IC50 came to 1.9. For the same compound, the inhibition result in data set [3] is “inactive”. In addition, on Liver carboxylesterase [10] (20 µM), the “inhibition (INH)” value is “Not Active”. The IC50 in data set [5] turned out to be 9.7 µM. This compound had an inhibition in data set [4] of 5.4%.

Usually IC50 stands for the concentration at which inhibition is half-maximal. Broadly, the inhibition is the change of the read-out against control, counted positive when it falls. What is called Ki is a measure of affinity in units of concentration, obtained from inhibition or displacement.
